{"source": "paper PMC6934184", "about": "“Selective DNA-PKcs inhibition extends the therapeutic index of localized radiotherapy and chemotherapy” (The Journal of Clinical Investigation, 2019)", "molecular_target": "T1, ACVR2B (Homo sapiens, UniProt Q13705)", "T1 construct": "purchased Thermo Fisher Scientific (Life Technologies) SelectScreen", "T1 sequence (Q13705 19-512)": "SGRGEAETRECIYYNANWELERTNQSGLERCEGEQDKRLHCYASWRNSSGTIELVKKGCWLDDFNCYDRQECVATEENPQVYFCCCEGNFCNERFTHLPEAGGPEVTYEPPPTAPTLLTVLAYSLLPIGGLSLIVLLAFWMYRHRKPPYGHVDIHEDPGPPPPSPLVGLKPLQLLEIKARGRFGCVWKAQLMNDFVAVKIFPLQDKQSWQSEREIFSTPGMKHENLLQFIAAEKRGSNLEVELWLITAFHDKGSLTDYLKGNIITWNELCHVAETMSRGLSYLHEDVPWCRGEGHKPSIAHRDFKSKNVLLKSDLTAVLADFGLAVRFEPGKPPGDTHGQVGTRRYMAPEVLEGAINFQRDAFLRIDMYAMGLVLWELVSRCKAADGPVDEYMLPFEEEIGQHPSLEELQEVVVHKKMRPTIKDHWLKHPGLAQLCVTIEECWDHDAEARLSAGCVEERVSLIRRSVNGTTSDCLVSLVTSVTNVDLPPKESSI", "assay": "SelectScreen LanthaScreen", "assay_type": "binding", "details": "1 µM", "method_in_brief": "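NU5455 was profiled across the SelectScreen Broad panel of kinase activity and binding assays. Z'LYTE reactions such as CSF1R ran at apparent Km ATP, while the Adapta CAMK1 assay used ATP listed as 10. Values are given as percent.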"}
{"smiles": "CN(C(=O)CN1CCOCC1)c1ccc2sc3c(-c4cccc5c(=O)cc(N6CC7CCC(C6)O7)oc45)cccc3c2c1", "note": "[NU5455]", "values": [{"measurement": "% displacement", "result": 15.7, "unit": "%"}]}
